Test system: Red imported fire ant (Solenopsis invicta)
Test: Fire ant repellency, honey plates near mounds (Example 6)
Assay type: in vivo
Details: separate trial; about 100 mg per plate; within 4 feet of mounds
From the text: Formulation A was poured into a plastic spray bottle and was sprayed onto 20 eight inch paper plates, one squeeze of the pump trigger per plate. […] Ten treated plates were placed randomly on the ground on a farm in Sparks, Ga., USA and ten control (untreated) plates were placed on the ground about 3 feet from the treated plates. Ten treated plates were placed about 4 feet from active Red imported fire ant mounds and ten control plates were placed near the same mounds no closer than 3 feet from the treated plates. Each plate received approximately 15 mL of an aqueous 25% honey solution.
Fifty percent of the control plates had active fire ant feeding within 15 minutes and 100% of the control plates had active fire ant feeding within 30 minutes.

COC(=O)c1ccccc1N [methyl anthranilate]
deterrence of fire ant feeding: did not deter fire ants from feeding

Source: patent US10178865B2, “Insect repellent” (priority 2013, dated 2019)
